Patent US7528252B2, “Derivatives of triazoly-imidazopyridine useful as ligands of the adenosine A2a receptor and their use as medicaments” (Sigma-Tau Industrie Farmaceutiche Riunite S.p.A., priority 2002, dated 2009)
Where two headings read alike, the source gives them in different places.

Assays:
[1] = molecular target: T1, human A2b receptor (Homo sapiens, UniProt P29275); assay: Affinity towards the adenosine A2b receptor ([3H]-DPCPX binding, HEK 293 membranes); conditions: read-out: A2b Ki (nM) ± sd
T1 construct: expressed in transfected cells; host or cells: HEK 293
T1 sequence (P29275 1-332): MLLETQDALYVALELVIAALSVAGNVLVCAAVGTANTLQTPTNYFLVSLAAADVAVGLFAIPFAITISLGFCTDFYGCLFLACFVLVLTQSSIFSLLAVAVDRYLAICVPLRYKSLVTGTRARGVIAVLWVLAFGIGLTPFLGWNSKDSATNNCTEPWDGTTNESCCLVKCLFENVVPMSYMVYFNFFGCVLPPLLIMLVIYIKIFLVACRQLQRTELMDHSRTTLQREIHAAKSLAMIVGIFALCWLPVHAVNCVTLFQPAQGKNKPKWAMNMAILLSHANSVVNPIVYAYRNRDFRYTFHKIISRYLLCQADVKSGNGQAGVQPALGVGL
Description: The interactive capacity of each product towards the adenosine A2b receptor was evaluated using membranes from HEK 293 cells stably expressing the human A2b receptor subtype exclusively.
Non-specific binding was measured in the presence of NECA (50 μM).
In binding studies for each compound, eight different concentrations (from 10^−5 M to 10^−12 M) were evaluated in order to obtain competition curves. By means of non-linear regression analysis of the competition curves, the IC50 values, which express the binding affinity of each product, were determined. Using the Cheng Prusoff equation (Ki=IC50/1+(L/Kd)) Ki values were calculated through which the affinity of each product studied, for the receptor investigated, is expressed.

[2] = molecular target: NMDA; assay: Receptor binding study, NMDA; conditions: reference compound
[3] = system: CD1 male mice; assay: Effects on spontaneous motor activity in mice; format: in vivo; conditions: for Horizontal activity / Total distance / Vertical activity: mean ± s.e.
Description: For this study, type CD1 male mice (n=8) were used. The effects of the products under study and of the reference compounds were evaluated using an apparatus consisting of a Plexiglas cage (40 cm×40 cm) surrounded by a series of photocells which monitor the movements of the animals placed inside, connected a computerised system, through which, the signals are collected and later elaborated.
Tests were carried out, after endoperitoneal administration of the products. 15 minutes after treatment, the treated animals, alternating with the controls, were placed inside the cage so as to record their spontaneous movements over a total period of 45 minutes broken down into two observation intervals (15′-45′ and 45′-60′, with respect to the time after treatment).
To examine the possible effects of the compounds studied on motor activity, the following parameters were considered: horizontal activity, vertical activity: total distance.
Except for CGS 21680 (reference compound, described in EP 0 277 917, Ciba-Geigy) which was dissolved in 0.9% NaCl, the products studied were solubilised in DMSO and then diluted in Cremofor EL and 0.9% NaCl (final concentrations: DMSO 15%, Cremofor EL 15%, NaCl 0.9%.

[4] = molecular target: T2, M5 (Homo sapiens, UniProt P08912); assay: Receptor binding study, M5; conditions: reference compound
T2 sequence (P08912 1-532): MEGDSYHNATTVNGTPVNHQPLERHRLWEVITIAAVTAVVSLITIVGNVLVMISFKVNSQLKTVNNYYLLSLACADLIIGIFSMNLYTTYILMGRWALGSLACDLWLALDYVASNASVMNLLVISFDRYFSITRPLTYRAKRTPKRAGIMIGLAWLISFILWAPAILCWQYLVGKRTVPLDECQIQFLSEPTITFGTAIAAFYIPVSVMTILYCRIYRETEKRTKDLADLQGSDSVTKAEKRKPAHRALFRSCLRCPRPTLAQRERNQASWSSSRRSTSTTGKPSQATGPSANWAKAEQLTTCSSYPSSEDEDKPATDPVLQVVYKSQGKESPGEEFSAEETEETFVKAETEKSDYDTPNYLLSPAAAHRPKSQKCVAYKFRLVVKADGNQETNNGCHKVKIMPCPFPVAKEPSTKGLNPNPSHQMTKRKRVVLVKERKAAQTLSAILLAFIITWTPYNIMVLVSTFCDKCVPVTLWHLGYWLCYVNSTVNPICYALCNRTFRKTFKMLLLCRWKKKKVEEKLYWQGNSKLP

[5] = molecular target: T3, Cholinetransporter (Homo sapiens, UniProt Q9GZV3); assay: Receptor binding study, Choline transporter; conditions: reference compound
T3 sequence (Q9GZV3 1-580): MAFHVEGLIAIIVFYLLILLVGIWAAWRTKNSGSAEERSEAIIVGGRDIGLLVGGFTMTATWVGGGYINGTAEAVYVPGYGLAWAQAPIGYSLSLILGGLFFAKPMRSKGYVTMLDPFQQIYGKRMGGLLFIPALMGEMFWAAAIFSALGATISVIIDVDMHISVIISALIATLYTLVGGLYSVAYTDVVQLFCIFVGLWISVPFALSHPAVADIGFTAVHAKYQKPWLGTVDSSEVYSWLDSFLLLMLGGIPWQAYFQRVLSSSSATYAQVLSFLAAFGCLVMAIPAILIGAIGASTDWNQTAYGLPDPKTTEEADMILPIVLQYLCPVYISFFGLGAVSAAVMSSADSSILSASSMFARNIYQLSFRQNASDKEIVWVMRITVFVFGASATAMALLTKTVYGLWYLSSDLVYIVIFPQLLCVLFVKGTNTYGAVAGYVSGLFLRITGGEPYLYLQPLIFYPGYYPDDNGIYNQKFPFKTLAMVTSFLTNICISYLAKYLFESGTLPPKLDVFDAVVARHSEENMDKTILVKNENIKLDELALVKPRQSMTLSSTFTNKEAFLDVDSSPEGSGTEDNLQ

[6] = molecular target: PCP; assay: Receptor binding study, PCP; conditions: reference compound
[7] = molecular target: ADOtransporter; assay: Receptor binding study, ADO transporter; conditions: reference compound
[8] = molecular target: T4, human A1 subtype adenosine receptor (Homo sapiens, UniProt P30542); assay: Affinity towards the adenosine A1 receptor ([3H]-DPCPX binding, CHO-K1 membranes); conditions: read-out: A1 Ki (nM) ± sd
T4 construct: expressed in transfected cells; host or cells: CHO-K1
T4 sequence (P30542 1-326): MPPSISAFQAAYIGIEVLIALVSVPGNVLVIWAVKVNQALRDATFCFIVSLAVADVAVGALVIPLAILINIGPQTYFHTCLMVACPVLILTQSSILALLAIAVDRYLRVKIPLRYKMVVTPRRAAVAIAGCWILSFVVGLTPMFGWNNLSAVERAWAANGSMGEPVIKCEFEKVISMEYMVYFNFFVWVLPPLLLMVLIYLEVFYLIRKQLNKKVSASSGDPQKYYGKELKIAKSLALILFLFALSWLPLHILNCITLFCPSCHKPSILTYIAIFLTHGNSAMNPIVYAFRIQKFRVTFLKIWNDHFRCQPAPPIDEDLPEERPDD

[9] = molecular target: T5, human A2a receptor (Homo sapiens, UniProt P29274); conditions: for KiA1/KiA2a: ratio of receptor affinity (selectivity); for Ki: read-out: A2a Ki (nM) ± sd, human A2a, HEK 293 membranes, [3H]-CGS21680
T5 sequence (P29274 whole entry): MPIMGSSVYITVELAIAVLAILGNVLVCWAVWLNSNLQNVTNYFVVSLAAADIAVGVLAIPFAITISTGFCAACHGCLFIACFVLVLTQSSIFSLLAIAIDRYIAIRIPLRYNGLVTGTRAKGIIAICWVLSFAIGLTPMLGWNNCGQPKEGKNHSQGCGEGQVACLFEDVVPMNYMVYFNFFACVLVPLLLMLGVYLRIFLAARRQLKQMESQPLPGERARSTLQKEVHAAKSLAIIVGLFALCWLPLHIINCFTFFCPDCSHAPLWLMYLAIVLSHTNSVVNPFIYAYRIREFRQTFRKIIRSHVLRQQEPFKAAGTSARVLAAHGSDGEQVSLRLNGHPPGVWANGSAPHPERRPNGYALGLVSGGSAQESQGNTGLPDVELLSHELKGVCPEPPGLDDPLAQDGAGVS

[10] = system: CD1 male mice; assay: Capacity of the products to induce catalepsy in mice; format: in vivo; conditions: endoperitoneal, 30 minutes prior to the test
Description: 10 CD1 male mice were used per group. For this test, a steel bar, 10 cm long, was placed at a height of 4.5 cm above the support surface. Onto this, were placed the front legs of the animals. The presence of catalepsy was determined by measuring the time (in seconds) the animal remained in the posture placed. Later, this parameter was placed relatively, on a scale of rising values (0 to 5) through which, the degree of catalepsy determined in both control animals and in these subjected to treatment with the substances under test could be proportionately expressed.
The reference products and these in this study were administered endoperitoneally, in a volume of 10 ml/kg, 30 minutes prior to the test.
Except for CGS 21680 (reference compound) which was dissolved in 0.9% NaCl, the products in the study and the control antagonist ZM 241385 were solubilised in DMSO and then diluted in Cremofor EL and 0.9% NaCl (final concentrations: DMSO 15%, Cremofor EL 15%, NaCl 0.9%).

[11] = molecular target: T5, human A2a receptor; assay: biochemical
[12] = molecular target: P2Y; assay: Receptor binding study, P2Y; conditions: reference compound
[13] = system: mice; assay: Forced swim test in mice; format: in vivo; conditions: 60 minutes before the test; 4 minutes of testing period
Description: Mice were dropped individually into glass cylinders (height: 25 cm, internal diameter 10 cm) containing 10 cm water, maintained at 23° C. The immobility time (sec) was measured during 4 minutes of test. A mouse was judged to be immobile when it remained floating in the water, making only the necessary movements to keep its head above water. Test compound ST 1535 was administered orally to mice, 60 minutes before the test.

[14] = molecular target: GABAa; assay: Receptor binding study, GABAa; conditions: reference compound
[15] = molecular target: P2X; assay: Receptor binding study, P2X; conditions: reference compound
[16] = 0.5 mg/kg endoperitoneal, interval 15′-45′ from treatment
[17] = 0.5 mg/kg endoperitoneal, interval 45′-60′ from treatment
[18] = 2.5 mg/kg endoperitoneal, interval 15′-45′ from treatment
[19] = 2.5 mg/kg endoperitoneal, interval 45′-60′ from treatment
[20] = 5 mg/kg endoperitoneal, interval 15′-45′ from treatment
[21] = 5 mg/kg endoperitoneal, interval 45′-60′ from treatment
[22] = 10 mg/kg endoperitoneal, interval 15′-45′ from treatment
[23] = 10 mg/kg endoperitoneal, interval 45′-60′ from treatment

Work on `O=c1nc2[nH]c3ccccc3nc-2c(=O)[nH]1` [Alloxazine, reference compound] yielded a Ki [1] of 3.8 ± 2.1 nM.
For `O=C(O)[C@@H]1C[C@H](CP(=O)(O)O)CCN1` [CGS 19755, reference compound], the IC50 [2] was 967 nM.
`CCNC(=O)[C@H]1O[C@@H](n2cnc3c(N)nc(NCCc4ccc(CCC(=O)O)cc4)nc32)[C@H](O)[C@@H]1O` [CGS 21680, reference compound] gave a Horizontal activity [3, 16] of 1608 ± 328, a Total distance [3, 16] of 504 ± 106 and a Vertical activity [3, 16] of 27 ± 11. The Horizontal activity [3, 17] was 471 ± 254, the Total distance [3, 17] was 121 ± 73 and the Vertical activity [3, 17] was 10 ± 1.
With `C[N+]1(C)CCC(OC(=O)C(c2ccccc2)c2ccccc2)CC1` [Compound 4-DAMP, reference compound] the IC50 [4] was 2 nM.
In the case of `C[N+]1(C)CCOC(O)(c2ccc(-c3ccc(C4(O)C[N+](C)(C)CCO4)cc3)cc2)C1` (stereo not drawn) [Hemicholinium-3, reference compound], the IC50 [5] is reported as 12 nM.
In the case of `C[C@]12N[C@H](Cc3ccccc31)c1ccccc12` [MK-801, reference compound], the IC50 [6] is reported as 2 nM.
`O=[N+]([O-])c1ccc(CSc2ncnc3c2ncn3[C@@H]2O[C@H](CO)[C@@H](O)[C@H]2O)cc1` [NBTI, reference compound] showed an IC50 [7] of 0.3 nM.
`Cn1c(-n2nccn2)nc2c(N)ncnc21` [ST 1490, 6-amino-9-methyl-8-(triazol-2-yl)-9(H)-purine] was tested, and the Ki [8] was 0.43 nM, the KiA1/KiA2a [9] was 0.009 and the Ki [9] was 46 nM.
Molecule `Cc1nc(N)c2nc(-n3nccn3)n(C)c2n1` [ST 1491, 6-amino-2,9-dimethyl-8-(triazol-2-yl)-9(H)-purine] has a Ki [8] of 10 ± 1.4 nM, a KiA1/KiA2a [9] of 0.15 and a Ki [9] of 70 ± 15 nM.
`Cn1c(-n2nccn2)nc2c(N)nc(CCc3ccccc3)nc21` [ST 1537, 9-methyl-2-(2-phenylethyl)-8-(2H-1,2,3-triazol-2-yl)-9H-purine-6-ylamine] was tested, and the Ki [8] was 80 ± 13 nM, the “appearance of catalepsy in mice (FIG. 1)” value [10] was “none of them brought about the appearance of catalepsy in mice” and the Ki [1] was 2330 ± 588 nM. The Horizontal activity [3, 18] was 7494 ± 565, the Total distance [3, 18] was 1676 ± 204 and the Vertical activity [3, 18] was 590 ± 78. For the same molecule, the Horizontal activity [3, 19] was 3133 ± 250, the Total distance [3, 19] was 677 ± 105 and the Vertical activity [3, 19] was 210 ± 17. The Horizontal activity [3, 20] was 7203 ± 264, the Total distance [3, 20] was 1503 ± 116 and the Vertical activity [3, 20] was 498 ± 77. It also gave a Horizontal activity [3, 21] of 2844 ± 299, a Total distance [3, 21] of 532 ± 95 and a Vertical activity [3, 21] of 363 ± 91. The Horizontal activity [3, 22] was 8242 ± 847, the Total distance [3, 22] was 2707 ± 950 and the Vertical activity [3, 22] was 528 ± 126. The Horizontal activity [3, 23] was 3874 ± 295, the Total distance [3, 23] was 843 ± 149 and the Vertical activity [3, 23] was 276 ± 57. The “effect on motor activity in mice (in words)” value ([3]; independently of the dosage administered (2.5-10 mg/kg)) was “induces a clear increase in motor activity”.
`Cn1c(-n2nccn2)nc2c(N)nccc21` [ST 1680, 4-amino-1-methyl-2-(triazol-2-yl)-1(H)-imidazo[4,5-c]pyridino triflate] gave a Ki [8] of 1560 ± 252 nM, a Ki [1] of 926 ± 55 nM and a KiA1/KiA2a [9] of 16. For the same molecule, the Ki [11] was 97 ± 23 nM.
`Nc1ncnc2c1ncn2[C@H]1C[C@H](O)[C@@H](COP(O)(=S)OP(=O)(O)OP(=O)(O)O)O1` (stereo partly drawn) [dATPα S, reference compound] gave an IC50 [12] of 22 nM.
`CN(C)CCCN1c2ccccc2CCc2ccccc21` [imipramine, reference compound] was tested, and the “time of immobility, forced swim test (FIG. 5)” value [13] was “in a manner similar to that observed for the antidepressive drug Imipramine”.
Molecule `NCc1cc(=O)[nH]o1` [muscimol, reference compound] has an IC50 [14] of 16 nM.
`Nc1ncnc2c1ncn2[C@@H]1O[C@H](COP(=O)(O)CP(=O)(O)OP(=O)(O)O)[C@@H](O)[C@H]1O` [α,β-MeATP, reference compound] showed an IC50 [15] of 14 nM.
